Substitutions are numbered along the chain they refer to. Where two headings read alike, the source gives them in different places.
Legend:
[1] = target: T1, SHP2 E69K (Homo sapiens, UniProt Q06124, E69K); assay: In vitro activity on SHP2 mutant E69K phosphatase; format: biochemical
T1 construct: recombinantly expressed full-length SHP2 (aa 1-593) with E69K and E76K; purchased Novoprotein Scientific Inc
T1 sequence (Q06124 1-593 E69K): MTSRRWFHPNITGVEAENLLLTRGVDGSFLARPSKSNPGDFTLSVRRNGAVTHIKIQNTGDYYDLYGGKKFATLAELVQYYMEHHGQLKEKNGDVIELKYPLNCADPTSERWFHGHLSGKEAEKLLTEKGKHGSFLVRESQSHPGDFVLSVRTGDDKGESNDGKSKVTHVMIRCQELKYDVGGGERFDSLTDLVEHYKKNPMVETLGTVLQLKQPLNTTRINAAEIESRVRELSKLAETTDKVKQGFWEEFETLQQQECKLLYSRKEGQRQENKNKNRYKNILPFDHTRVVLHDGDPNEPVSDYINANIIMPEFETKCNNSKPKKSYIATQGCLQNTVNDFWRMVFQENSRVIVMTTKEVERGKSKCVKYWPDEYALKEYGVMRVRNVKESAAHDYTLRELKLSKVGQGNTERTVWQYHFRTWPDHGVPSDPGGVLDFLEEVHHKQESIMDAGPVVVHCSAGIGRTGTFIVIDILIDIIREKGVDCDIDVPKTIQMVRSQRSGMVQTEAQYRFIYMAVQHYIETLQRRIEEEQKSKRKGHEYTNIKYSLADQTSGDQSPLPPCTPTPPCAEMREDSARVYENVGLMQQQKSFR
Description: (§2) The reaction solution was shaked (350 rpm) at room temperature for 30 minutes. The reaction substrate DiFMUP with a final concentration of 30 μM was added, and the reaction solution was reacted at room temperature for 30 minutes. The phosphatase reaction was stopped by adding 5 μL of stop solution (60 mM HEPES, pH 7.5, 0.2% SDS).

[2] = target: T2, SHP2 E76K (Homo sapiens, UniProt Q06124, E76K); assay: In vitro activity on SHP2 mutant E76K phosphatase; format: biochemical
T2 construct: recombinantly expressed full-length SHP2 (aa 1-593) with E69K and E76K; purchased Novoprotein Scientific Inc
T2 sequence (Q06124 1-593 E76K): T1 sequence (Q06124 1-593 E69K) with K69E, E76K
Description: as §2

[3] = system: p-ERK in KYSE-520 cells; assay: Determination of p-ERK in KYSE-520 cells (HTRF); format: cell-based; conditions: Homo sapiens
[4] = Pharmacokinetics assay in rats; format: in vivo, SD rats; conditions: rat; for AUC / clearance / half-life / bioavailability / Cmax: male, SD, plasma; for AUC: read-out: Area under curve AUC; for clearance: read-out: Clearance CL_obs; for half-life: read-out: Half-life T1/2 (converted); for bioavailability: PO 5 mg/kg vs IV 1 mg/kg, read-out: Bioavailability F; for Cmax: read-out: Maximum plasma concentration Cmax
Description: Rats were used as test animals. The drug concentration in plasma at different time points was determined by LC/MS/MS method after intravenous administration or intragastrical administration of the compound of the present invention to rats. The pharmacokinetic behavior of the compound of the present invention was studied and evaluated in rats.
The atropisomer with a RT of 1.495 minutes in Examples 3 and 4, compounds of Example 17, Example 41 and Example 43.
Healthy male SD rats (6-8 weeks old), 3 rats per group.
Intravenous administration: A certain amount of the test compound was weighed, to which 10% by volume of N,N-dimethylacetamide, 33% by volume of triethylene glycol and 57% by volume of water were added to prepare a 1 mg/mL colorless, clear and transparent solution;
Intragastrical administration: A certain amount of the test compound was weighed, to which 0.5% by mass of hypromellose, 0.1% by volume of Tween 80 and 99.4% by volume of water were added to prepare a 1 mg/mL white suspension.
After an overnight fast, the SD rats were intravenously administered the test compound at an administration dose of 1 mg/kg, or intragastrically administered the test compound at an administration dose of 5 mg/kg.
(§1) The rats were intravenously administered the compound of the present invention. 0.2 ml of blood was taken from the jugular vein at 0.083, 0.25, 0.5, 1, 2, 4, 8 and 24 hours after the administration. The samples were placed in tubes containing EDTA-K2, and centrifuged at 4000 rpm and 4° C. for 5 minutes to separate the blood plasma. The plasma samples were stored at −75° C.
as §1, with “Or, the rats” for “The rats”, “were intragastrically” for “were intravenously”, “at” for “at 0.083,”
The content of the test compound in the plasma of rat after intragastrical administration of the test compound at different concentrations was determined: 50 μL of rat plasma at each time after administration was taken, to which 200 μL of a solution (50 ng/mL) of internal standard dexamethasone in acetonitrile was added. The plasma was vortex-mixed for 30 seconds, and centrifuged at 4700 rpm and 4° C. for 15 minutes. The supernatant was taken from the plasma samples, and a three-fold dilution was carried out by adding water. 2.0 μL of the supernatant was used for LC/MS/MS analysis.

CNc1nccc(Sc2cnc(N3CCC4(CC3)Cc3ncccc3[C@H]4N)n3ccnc23)c1Cl [Example 43, (S)-1′-(8-((3-Chloro-2-(methylamino)pyridin-4-yl)thio)imidazo[1,2-c]pyrimidin-5-yl)-5,7-dihydrospiro[cyclopenta[b]pyridine-6,4′-piperidin]-5-amine]
IC50 ([1]; activated polypeptide IRS1 added, read-out: SHP2 E69K the activated polypeptide was added IC50): 7.1 nM
IC50 ([1]; activated polypeptide not added, read-out: SHP2 E69K the activated polypeptide was not added IC50): 0.78 nM
IC50 ([2]; activated polypeptide IRS1 added, read-out: SHP2 E76K the activated polypeptide was added IC50): 78 nM
IC50 ([2]; activated polypeptide not added, read-out: SHP2 E76K the activated polypeptide was not added IC50): 4.2 nM
IC50 ([3]; KYSE-520, 2 h): 4.8 nM
AUC ([4]; IV 1 mg/kg): 6640 ± 1360 ng·h/mL
clearance ([4]; IV 1 mg/kg): 2.52 ± 0.52 mL/min/kg
half-life ([4]; IV 1 mg/kg): 4.71 ± 0.27 h
bioavailability [4]: 75.4 ± 7.5%
AUC ([4]; PO 5 mg/kg): 25200 ± 2500 ng·h/mL
half-life ([4]; PO 5 mg/kg): 4.17 ± 0.14 h
Cmax ([4]; PO 5 mg/kg): 2510 ± 405 ng/mL
Apparent distribution volume Vss_obs ([4]; IV 1 mg/kg): 0.765 ± 0.082 L/kg

CNc1nccc(Sc2c(C)nc(N3CCC4(CC3)Cc3ncccc3[C@H]4N)n3ccnc23)c1Cl [Example 41, (S)-1′-(8-((3-Chloro-2-(methylamino)pyridin-4-yl)thio)-7-methylimidazo[1,2-c]pyrimidin-5-yl)-5,7-dihydrospiro[cyclopenta[b]pyridine-6,4′-piperidin]-5-amine]
IC50 ([1]; SHP2 E69K the activated polypeptide was added IC50, activated polypeptide IRS1 added): 8.5 nM
IC50 ([1]; SHP2 E69K the activated polypeptide was not added IC50, activated polypeptide not added): 0.91 nM
IC50 ([2]; SHP2 E76K the activated polypeptide was added IC50, activated polypeptide IRS1 added): 134 nM
IC50 ([2]; SHP2 E76K the activated polypeptide was not added IC50, activated polypeptide not added): 5.4 nM
IC50 ([3]; 2 hours): 14 nM
AUC ([4]; IV 1 mg/kg): 1130 ± 210 ng·h/mL
clearance ([4]; IV 1 mg/kg): 14.6 ± 2.6 mL/min/kg
half-life ([4]; IV 1 mg/kg): 5.33 ± 0.11 h
bioavailability [4]: 67.6 ± 10.9%
AUC ([4]; PO 5 mg/kg): 3880 ± 631 ng·h/mL
half-life ([4]; PO 5 mg/kg): 4.22 ± 0.11 h
Cmax ([4]; PO 5 mg/kg): 339 ± 88 ng/mL
Apparent distribution volume Vss_obs ([4]; IV 1 mg/kg): 4.75 ± 0.72 L/kg

Source: patent US20220073521A1, “PYRIMIDINE AND FIVE-MEMBERED NITROGEN HETEROCYCLE DERIVATIVE, PREPARATION METHOD THEREFOR, AND MEDICAL USES THEREOF” (Tuojie Biotech (Shanghai) Co., Ltd., priority 2018, published 2022)
